From US20160058743A1, “METHODS FOR TREATING SENSORIMOTOR IMPAIRMENTS ASSOCIATED WITH CERTAIN TYPES OF STROKE USING AMINOPYRIDINES” (ACORDA THERAPEUTICS, INC., priority 2013, published 2016)
“And” between values parts separate entries of the source, which are not always exact repeats. Identical values can stand only once. “Also recorded” adds a separate entry of the source.

Legend:
[1] = test system: rats with middle cerebral artery occlusion (MCAO); assay: Forelimb placing test after MCAO; type: in vivo, Sprague Dawley rats; conditions: for Forelimb Placing Total Score: 0=normal, 12=maximally impaired
Source text: In particular, the MCAO model in Sprague Dawley rats that was utilized in the experiments presented below mimics the conditions in human ischemic stroke. In this model, focal cerebral infarcts were made by permanent occlusion of the proximal right middle cerebral artery (MCA) using a modification of the method of Tamura et al. (No To Shinkei 1986; 38:747-51). Briefly, the temporalis muscle was bisected and reflected through an incision made midway between the eye and the ear canal. The proximal MCA was exposed through a subtemporal craniectomy without removing the zygomatic arch and without transecting the facial nerve.
In this experiment, Sprague Dawley rats were anesthetized, subjected to a surgery resulting in middle cerebral artery occlusion (MCAO), treated with and without 4-aminopyridine and behavioral assessments were performed as described below. Treatment was initiated at 4 weeks after stroke.
Dosing and Treatment: Rats were treated in accordance with the dosing schedule shown in Tables 2A, 2B, 3 and FIG. 2, with each Phase being a two week period of time. A solution of 4-AP was used in this experiment. Dosing was started at 4 weeks after ischemic event. 4-aminopyridine was dissolved in water for injection (WFI, Cellgro) and sterile filtered. Final concentrations of 0.315 mg/mL or 1.0 mg/mL of 4-aminopyridine were delivered at 2 mL/kg by gastric gavage, resulting in final doses of 0.63 mg/kg and 2 mg/kg respectively. Vehicle control treatment was WFI delivered at 2 mL/kg by gastric gavage. This study was divided into three treatment phases (1-3) with each randomized cohort of animals receiving a different dose level during each of the treatment phases. Starting on day 30 after MCAO (Day 30, start of phase 1), the animals received gavage dosing of solutions (2 mL/kg) approximately 12 hours apart, for a total of five doses. The same schedule was repeated with different treatment on Day 44 and Day 58 for phase 2 and 3 of the study, respectively. Animals were not treated during the 10 days between phases (washout period).
Treatment groups: Dosing was started 4 weeks after MCAO surgery. During these 4 weeks, weekly behavioral assessments, as defined below, were performed. Two dose levels of 4-AP plus vehicle control were assessed, with treatment starting at 4 weeks after ischemic event. All dosing was via gastric gavage, volume not to exceed 2 mL/kg. Animals were given the first dose and behavioral assessments were performed starting 60 minutes after dosing. Animals then received the second dose that day at the appropriate time and b.i.d (preferably every 12 hours) thereafter for 2 more days (3 total days of dosing, 5 total doses). One hour after the 5th dose, animals were subjected to behavioral assessments as defined below. Following the final behavioral assessment, drug was withdrawn for 10 or 11 days, behavior was re-assessed, and then animals were re-challenged with a cross-over treatment (Phase 2 of Table 2B) as described in Tables 2A, 2B and 3, followed by the same behavioral testing and dosing regimen. This cross-over was repeated one more time as well (Phase 3 of Table 2B) (see FIG. 2).
Behavioral test details: Behavioral evaluations were done by evaluators blinded to treatment assignment. Blinded assessments of sensorimotor function were performed just prior to MCAO surgery, 24 hours after MCAO surgery and weekly thereafter until the first phase of dosing using limb placing and body swing behavioral tests. As described above, behavioral assessments were timed exactly with dosing times. Animals were tested one hour after the 1st and 5th doses of each phase (i.e., Days 30 and 32 of the first phase, Days 44 and 46 of the second phase; and Days 58 and 60 of the third phase); animals were also tested during the washout periods on Days 42 and 56. Animals were given the first dose, behavioral assessments were performed starting 60 minutes later, and blood was collected 90 minutes after dosing. […]

[2] = Body weight of MCAO rats; type: in vivo, Sprague Dawley rats; conditions: individual animals and group Mean
Source text: Tables 16-18 show Cylinder Test Total Score (% of overall asymmetry) for each of Groups 1-3.

Nc1ccncc1 [4-AP, 4-aminopyridine]
Effect on forelimb function (forelimb placing test) ([1]; Example 2, low (0.63 mg/kg) or high (2 mg/kg) dose b.i.d. p.o., started 4 weeks post MCAO, dose-responsive, reversible): effective to improve forelimb function; also recorded: significant improvement
Forelimb Placing Total Score ([1]; Group 2, D 30 post-MCAO, Low 4-AP 0.63 mg/kg b.i.d. p.o., 1 h after 1st dose, group Mean, N=15): 4.20
Forelimb Placing Total Score ([1]; Group 2, D 58 post-MCAO, High 4-AP 2.0 mg/kg b.i.d. p.o., 1 h after 1st dose, group Mean, N=15): 1.90
Forelimb Placing Total Score ([1]; Group 3, D 44 post-MCAO, High 4-AP 2.0 mg/kg b.i.d. p.o., 1 h after 1st dose, group Mean, N=15): 2.67
Forelimb Placing Total Score ([1]; Group 3, D 44 post-MCAO, High 4-AP 2.0 mg/kg b.i.d. p.o., 1 h after 1st dose, individual rats): 4.00 (3×) and 1.00 and 2.50 and 3.00 (3×) and 4.50 (2×) and 0.00 (3×) and 5.00 and 1.50
Forelimb Placing Total Score ([1]; Group 3, D 46 post-MCAO, High 4-AP 2.0 mg/kg b.i.d. p.o., 1 h after 5th dose, group Mean, N=15): 1.33
Forelimb Placing Total Score ([1]; Group 3, D 46 post-MCAO, High 4-AP 2.0 mg/kg b.i.d. p.o., 1 h after 5th dose, individual rats): 3.00 (3×) and 0.00 (5×) and 2.00 and 1.50 (3×) and 1.00 (2×) and 2.50
Forelimb Placing Total Score ([1]; Group 3, D 58 post-MCAO, Low 4-AP 0.63 mg/kg b.i.d. p.o., 1 h after 1st dose, group Mean, N=15): 2.00
Forelimb Placing Total Score ([1]; Group 3, D 58 post-MCAO, Low 4-AP 0.63 mg/kg b.i.d. p.o., 1 h after 1st dose, individual rats): 3.00 (4×) and 0.50 and 2.00 and 3.50 and 1.50 (2×) and 2.50 (2×) and 4.00 and 0.00 (3×)
Forelimb Placing Total Score ([1]; Group 3, D 60 post-MCAO, Low 4-AP 0.63 mg/kg b.i.d. p.o., 1 h after 5th dose, group Mean, N=15): 1.80
Forelimb Placing Total Score ([1]; Group 3, D 60 post-MCAO, Low 4-AP 0.63 mg/kg b.i.d. p.o., 1 h after 5th dose, individual rats): 3.00 (4×) and 1.00 (2×) and 2.00 (2×) and 3.50 and 0.50 and 2.50 (2×) and 0.00 (3×)
Weight ([2]; Group 1, D 1): 291 g and 317 g (2×) and 306 g and 315 g and 323 g and 294 g
Weight ([2]; Group 1, D 7): 328 g and 361 g and 359 g and 375 g and 369 g and 340 g and 366 g
Weight ([2]; Group 1, D 14): 375 g and 403 g and 394 g and 421 g and 436 g and 382 g and 422 g
Weight ([2]; Group 1, D 21): 399 g and 419 g and 416 g and 444 g and 494 g and 428 g and 469 g
Weight ([2]; Group 1, D 28): 427 g and 451 g and 436 g and 484 g and 525 g and 457 g and 506 g
Weight ([2]; Group 1, D 30): 425 g and 450 g and 435 g and 490 g and 544 g and 470 g and 512 g
Weight ([2]; Group 1, D 32): 411 g and 441 g and 417 g and 470 g and 515 g and 454 g and 496 g
Weight ([2]; Group 1, D 42): 448 g and 491 g and 449 g and 499 g and 565 g and 479 g and 543 g
Weight ([2]; Group 1, D 44): 455 g and 501 g and 447 g and 511 g and 566 g and 480 g and 545 g and 454 g
Weight ([2]; Group 1, D 46): 448 g and 490 g and 440 g and 494 g and 570 g and 488 g and 552 g
Weight ([2]; Group 1, D 56): 476 g and 509 g and 452 g and 523 g and 612 g and 496 g and 576 g
Weight ([2]; Group 1, D 58): 480 g and 520 g and 460 g and 530 g and 625 g and 512 g and 585 g
Weight ([2]; Group 1, D 60): 475 g and 511 g and 456 g and 527 g and 615 g and 509 g and 587 g
Weight ([2]; Group 1, D −1): 305 g and 317 g and 311 g and 332 g and 340 g and 324 g and 330 g and 313 g
